Patent US20230109010A1, “PESTICIDE COMPOSITIONS WITH SUPRAMOLECULAR STRUCTURES FOR AGRICULTURAL USE” (BPS JUST ENERGY TECHNOLOGY, LLC, priority 2020, published 2023)

Tests used:
Sclerotinia sclerotiorum = test: In vitro fungal bioassay on amended PDA, fungal ring diameter; assay type: cell-based; settings: fungicide at EC50 concentration, 24° C., 96 hours
Macrophomina phaseoli = test: as above; assay type: cell-based; settings: fungicide at EC50 concentration, 24° C., 96 hours
Fusarium graminearum = assay type: cell-based; settings: fungicide at EC50 concentration, PDA, 24° C., 96 hours
Rhizoctonia solani = test: In vitro fungal bioassay on amended PDA, fungal ring diameter; assay type: cell-based; settings: fungicide at EC50 concentration, 24° C., 96 hours
Pythium irregulare = test: as above; assay type: cell-based; settings: fungicide at EC50 concentration, 24° C., 96 hours
Botrytis cinerea = test: as above; assay type: cell-based; settings: fungicide at EC50 concentration, 24° C., 96 hours
Fall armyworms = test: Insecticide leaf-dip bioassay on spinach squares, percent killed; assay type: in vivo, Spodoptera frugiperda
Procedure: In this example, a ten replicated in vitro bioassay was conducted to understand the insecticide compatibilities of insecticide compositions with supramolecular host or guest chemistries. This example utilized a common insecticide, chlorantraniliprole at various application rates to understand the impact of supramolecular chemistry. Chlorantraniliprole is an insecticide active ingredient found in Coragen® insecticide, Ferterra® insecticide, and Acelepryn G® insecticide among others. Chlorantraniliprole, also known as Rynaxypyr, is an insecticide belonging to the chemical group, diamides, with a group 28 mode of action. Chlorantraniliprole opens muscular calcium channels (particularly the ryanodine receptor), rapidly causing paralysis and ultimately death of sensitive species, those being of the order of Lepidoptera and some other Coleoptera, Diptera, and Isoptera species.
A 2x factorial was used for ppm dosages to test with those being 0.005, 0.01, 0.02, 0.04, and 0.08 ppm of chlorantraniliprole. The chlorantraniliprole was sourced from Millipore Sigma, CAS Number: 500008-45-7, with the reference material being the material used for this example. The treatments were 0.005, 0.01, 0.02, 0.04, and 0.08 ppm of chlorantraniliprole as control. The supramolcular compositions were screened at the same rates of chlorantraniliprole with the addition of 23% SymMAX™ supramolecular host chemistry to the active (i.e. 0.08 ppm of active would have 0.0184 ppm 23% SymMAX™ supramolecular host chemistry). SymMAX™ supramolecular host chemistry was sourced from Shotwell Hydrogenics. The insects used for this experiment were Fall armyworms, Spodoptera frugiperda, sourced from Benzon Research of Pennsylvania. Eggs were reared to first instar at 23° C. with a noctuid diet also prepared by Benzon research.
Treatment solutions were prepared by making a stock solution of chlorantraniliprole by dissolving 0.0056 grams of chlorantraniliprole into 49.98 grams of acetone to make a 112 ppm stock solution. The stock solution was diluted to 11 ppm to make the appropriate treatment rates and to make the supramolecular compositions. The 11 ppm stock solution of the control and composition was diluted to 0.005, 0.01, 0.02, 0.04, and 0.08 ppm by diluting to a 100 gram solution of water for the leaf dipping.
Treatments were applied to 1-inch squares of spinach that were dipped in each treatment solution and allowed to dry at room temperature at 20° C. for 2 hours before 5 to 6 fall armyworms were added to a petri dish with filter paper and 1.7 mL of water. Each petri dish represents one repetition of the application and the number of live worms added were recorded on each petri dish and counted at 24 and 48 hours.

Compound: CO/C=C(/C(=O)OC)c1ccccc1Oc1cc(Oc2ccccc2C#N)ncn1 [Azoxystrobin, azoxystrobin]
- FUNGAL RING DIAMETER (mm) FOR AZOXYSTROBIN (Sclerotinia sclerotiorum): 43.1 mm
- FUNGAL RING DIAMETER (mm) FOR AZOXYSTROBIN (Macrophomina phaseoli): 40.2 mm
- FUNGAL RING DIAMETER (mm) FOR AZOXYSTROBIN (Fusarium graminearum): 21.1 mm
- FUNGAL RING DIAMETER (mm) FOR AZOXYSTROBIN (Rhizoctonia solani): 48.4 mm
- FUNGAL RING DIAMETER (mm) FOR AZOXYSTROBIN (Pythium irregulare): 44.3 mm
- FUNGAL RING DIAMETER (mm) FOR AZOXYSTROBIN (Botrytis cinerea): 52.5 mm

Compound: CNC(=O)c1cc(Cl)cc(C)c1NC(=O)c1cc(Br)nn1-c1ncccc1Cl [Chlorantraniliprole Control, chlorantraniliprole]
- PERCENT KILLED AT 24 HOURS (Fall armyworms; 0.005 ppm chlorantraniliprole): 26.0%
- PERCENT KILLED AT 48 HOURS (Fall armyworms; 0.005 ppm chlorantraniliprole): 36.0%
- PERCENT KILLED AT 24 HOURS (Fall armyworms; 0.01 ppm chlorantraniliprole): 15.3%
- PERCENT KILLED AT 48 HOURS (Fall armyworms; 0.01 ppm chlorantraniliprole): 57.0%
- PERCENT KILLED AT 24 HOURS (Fall armyworms; 0.02 ppm chlorantraniliprole): 15.3%
- PERCENT KILLED AT 48 HOURS (Fall armyworms; 0.02 ppm chlorantraniliprole): 28.9%
- PERCENT KILLED AT 24 HOURS (Fall armyworms; 0.04 ppm chlorantraniliprole): 37.7%
- PERCENT KILLED AT 48 HOURS (Fall armyworms; 0.04 ppm chlorantraniliprole): 81.4%
- PERCENT KILLED AT 24 HOURS (Fall armyworms; 0.08 ppm chlorantraniliprole): 19.6%
- PERCENT KILLED AT 48 HOURS (Fall armyworms; 0.08 ppm chlorantraniliprole): 91.7%

Compound: FC(F)C(F)(F)OCC(Cn1cncn1)c1ccc(Cl)cc1Cl (stereo not shown) [Tetraconazole, tetraconazole]
- FUNGAL RING DIAMETER (mm) FOR FLUXAPYROXAD (Sclerotinia sclerotiorum): 65.41 mm
- FUNGAL RING DIAMETER (mm) FOR TETRACONAZOLE (Sclerotinia sclerotiorum): 56.96 mm
- FUNGAL RING DIAMETER (mm) FOR FLUXAPYROXAD (Macrophomina phaseoli): 66.979 mm
- FUNGAL RING DIAMETER (mm) FOR TETRACONAZOLE (Macrophomina phaseoli): 61.298 mm
- FUNGAL RING DIAMETER (mm) FOR FLUXAPYROXAD (Fusarium graminearum): 40.783 mm
- FUNGAL RING DIAMETER (mm) FOR TETRACONAZOLE (Fusarium graminearum): 30.766 mm
- FUNGAL RING DIAMETER (mm) FOR FLUXAPYROXAD (Rhizoctonia solani): 54.377 mm
- FUNGAL RING DIAMETER (mm) FOR TETRACONAZOLE (Rhizoctonia solani): 74.33 mm
- FUNGAL RING DIAMETER (mm) FOR FLUXAPYROXAD (Pythium irregulare): 89 mm
- FUNGAL RING DIAMETER (mm) FOR TETRACONAZOLE (Pythium irregulare): 85.93 mm
- FUNGAL RING DIAMETER (mm) FOR FLUXAPYROXAD (Botrytis cinerea): 49.988 mm
- FUNGAL RING DIAMETER (mm) FOR TETRACONAZOLE (Botrytis cinerea): 65.2 mm
